This passage reports GI50 results from US12668599B2, “Heterobifunctional compounds and methods of treating disease” (Halda Therapeutics OpCo, Inc., priority 2023, dated 2026).

Test [1] concerns T-Rex 293 cell line SC3 cells having increased expression of androgen receptor protein due to exposure to doxycycline. The test is described as follows: Cellular growth inhibition, T-Rex 293 SC3 cells with doxycycline-induced androgen receptor (CellTiter-Glo 2.0, 72 hours). Conditions: T-Rex 293 SC3 cells with 10 ng/ml doxycycline (increased androgen receptor expression), 72 hours, CellTiter-Glo 2.0. It is filed as cell-based.

Test [2] deals with T-Rex 293 cell line SC3 cells lacking increased expression of androgen receptor protein. The test is described as follows: Cellular growth inhibition, T-Rex 293 SC3 cells without doxycycline (CellTiter-Glo 2.0, 72 hours). Format: cell-based. To be noted: T-Rex 293 SC3 cells not exposed to doxycycline (no increased androgen receptor expression).
The next test deals with VCaP cells. The test is described as follows: Cellular growth inhibition assay for VCaP cells (CellTiter-Glo 2.0, 72 hours). Format: cell-based, human. To be noted: CellTiter-Glo 2.0. (ATP-based viability assays read luminescence as a measure of living cells.)

Broadly, the GI50 is the concentration at which growth is held to half of that of the control. The low end stands for greater sensitivity of the cells, the high end for lower sensitivity of the cells. As to `CC[C@@H]1N=C(c2ccc(C3CCC4(CC3)CCN(c3ccc(C(=O)NC5CCC(Oc6ccc(C#N)c(OC)c6)CC5)nn3)C4)cc2)c2c(sc(C)c2C)-n2c(C)nnc21` (stereo partly drawn) [Compound I-41, N-((1r,4r)-4-(4-cyano-3-methoxyphenoxy)cyclohexyl)-6-(8-(4-((S)-6-ethyl-2,3,9-trimethyl-6H-thieno[3,2-f][1,2,4]triazolo[4,3-a][1,4]diazepin-4-yl)phenyl)-2-azaspiro[4.5]decan-2-yl) pyridazine-3-carboxamide], the GI50 (in test [1]; in test [2]; in the test with VCaP cells (72 hours)) was less than 0.5 µM throughout.
On to `COc1cc(O[C@H]2CC[C@H](NC(=O)c3ccc(N4CCC5(CCN(c6ccc(C7=N[C@@H](C)c8nnc(C)n8-c8sc(C)c(C)c87)c(F)c6)CC5)C4)nn3)CC2)ccc1C#N` [Compound I-45, N-[4-(4-cyano-3-methoxy-phenoxy)cyclohexyl]-6-[8-[3-fluoro-4-[(9S)-4,5,9,13-tetramethyl-3-thia-1,8,11,12-tetrazatricyclo[8.3.0.0^2,6]trideca-2 (6),4,7,10,12-pentaen-7-yl]phenyl]-2,8-diazaspiro[4.5]decan-2-yl]pyridazine-3-carboxamide], for which the concentration for 50% growth inhibition (GI50) in test [1] was less than 0.5 µM; in test [2] (72 h), less than 0.5 µM; with VCaP cells (Homo sapiens, VCaP, 72 h) it was less than 0.5 µM.
For `COc1cc(O[C@H]2CC[C@H](NC(=O)c3ccc(N4CCC5(CCN(c6ccc(C7=N[C@@H](C)c8nnc(C)n8-c8sc(C)c(C)c87)cc6C)CC5)C4)nn3)CC2)ccc1C#N` [Compound I-46, N-[4-(4-cyano-3-methoxy-phenoxy)cyclohexyl]-6-[8-[2-methyl-4-[(9S)-4,5,9,13-tetramethyl-3-thia-1,8,11,12-tetrazatricyclo[8.3.0.0^2,6]trideca-2 (6),4,7,10,12-pentaen-7-yl]phenyl]-2,8-diazaspiro[4.5]decan-2-yl]pyridazine-3-carboxamide], the 50% growth inhibitory concentration (GI50) was less than 0.5 µM in test [1]; less than 0.5 µM in test [2] (72 h); less than 0.5 µM with VCaP cells (Homo sapiens, VCaP, 72 h).
Consider `COc1cc(O[C@H]2CC[C@H](NC(=O)c3ccc(N4C[C@H]5CN(c6ccc(C7=N[C@@H](C)c8nnc(C)n8-c8sc(C)c(C)c87)cc6)C[C@H]5C4)nn3)CC2)ccc1C#N` [Compound I-47], for which the GI50 in test [1] was less than 0.5 µM; in test [2] (72 h), less than 0.5 µM; in the test with VCaP cells (Homo sapiens, VCaP, 72 h) it was less than 0.5 µM.
`COc1cc(O[C@H]2CC[C@H](NC(=O)c3ccc(N4C[C@]5(C)CN(c6ccc(C7=N[C@@H](C)c8nnc(C)n8-c8sc(C)c(C)c87)cc6)C[C@]5(C)C4)nn3)CC2)ccc1C#N` [Compound I-48]: the concentration for 50% growth inhibition (GI50) is less than 0.5 µM in test [1]; less than 0.5 µM in test [2] (72 h); less than 0.5 µM in the test with VCaP cells (Homo sapiens, VCaP, 72 h).
On to `COc1cc(O[C@H]2CC[C@H](NC(=O)c3ccc(N4CCC5(CCC(Oc6ccc(C7=N[C@@H](C)c8nnc(C)n8-c8sc(C)c(C)c87)cc6)C5)C4)nn3)CC2)ccc1C#N` (stereo partly drawn) [Compound I-50], for which the concentration for 50% growth inhibition (GI50) in test [1] was less than 0.5 µM; in test [2] (72 h), less than 0.5 µM; in the test on VCaP cells (Homo sapiens, VCaP, 72 h), less than 0.5 µM.
For `COc1cc(O[C@H]2CC[C@H](NC(=O)c3ccc(N4CCC5(CCC(Oc6ccc(C7=N[C@@H](C)c8nnc(C)n8-c8sc(C)c(C)c87)cc6)C5)C4)nn3)CC2)ccc1C#N` (stereo partly drawn) [Compound I-51], the GI50 (in test [1]; in test [2]; in the test with VCaP cells (72 hours)) was less than 0.5 µM each time.
Regarding `COc1cc(O[C@H]2CC[C@H](NC(=O)c3ccc(N4CCC5(CCC(Oc6ccc(C7=N[C@@H](C)c8nnc(C)n8-c8sc(C)c(C)c87)cc6)C5)C4)nn3)CC2)ccc1C#N` (stereo partly drawn) [Compound I-52], the GI50 (in test [1]; in test [2]; in the test with VCaP cells (72 hours)) was less than 0.5 µM in each case.
Take `COc1cc(O[C@H]2CC[C@H](NC(=O)c3ccc(N4CCC5(CCC(c6ccc(C7=N[C@@H](C)c8nnc(C)n8-c8sc(C)c(C)c87)cc6)CC5)C4)cn3)CC2)ccc1C#N` (stereo partly drawn) [Compound I-53]: the GI50 was less than 0.5 µM in test [1]; less than 0.5 µM in test [2] (72 h); less than 0.5 µM in the test with VCaP cells (Homo sapiens, VCaP, 72 h).
For the compound `COc1cc(O[C@H]2CC[C@H](NC(=O)c3cnc(N4CCC5(CCC(c6ccc(C7=N[C@@H](C)c8nnc(C)n8-c8sc(C)c(C)c87)cc6)CC5)C4)cn3)CC2)ccc1C#N` (stereo partly drawn) [Compound I-54, N-[4-(4-cyano-3-methoxy-phenoxy)cyclohexyl]-5-[8-[4-[(9S)-4,5,9,13-tetramethyl-3-thia-1,8,11,12-tetrazatricyclo[8.3.0.0^2,6]trideca-2 (6),4,7,10,12-pentaen-7-yl]phenyl]-2-azaspiro[4.5]decan-2-yl]pyrazine-2-carboxamide], the 50% growth inhibitory concentration (GI50) in test [1] is less than 0.5 µM; in test [2] (72 h), less than 0.5 µM; with VCaP cells (Homo sapiens, VCaP, 72 h), less than 0.5 µM.
For the compound `COc1cc(O[C@H]2CC[C@H](NC(=O)c3ccc(N4CCC5(CCN(c6ccc(C7=N[C@@H](C)c8nnc(C)n8-c8sc(C)c(C)c87)cc6)CC5)C4)cc3)CC2)ccc1C#N` [Compound I-55], the concentration for 50% growth inhibition (GI50) in test [1] is less than 0.5 µM; in test [2] (72 h), less than 0.5 µM; in the test with VCaP cells (Homo sapiens, VCaP, 72 h), less than 0.5 µM.
`COc1cc(O[C@H]2CC[C@H](NC(=O)c3ccc(N4CCC5(CCC(c6ccc(C7=N[C@@H](C)c8nnc(C)n8-c8sc(C)c(C)c87)c(F)c6)CC5)C4)nn3)CC2)ccc1C#N` (stereo partly drawn) [Compound I-59]: the GI50 was less than 0.5 µM in test [1]; less than 0.5 µM in test [2] (72 h); less than 0.5 µM in the test on VCaP cells (Homo sapiens, VCaP, 72 h).
`COc1cc(O[C@H]2CC[C@H](NC(=O)c3ccc(N4CCC5(CCC(c6ccc(C7=N[C@@H](C)c8nnc(C)n8-c8sc(C)c(C)c87)cc6C)CC5)C4)nn3)CC2)ccc1C#N` (stereo partly drawn) [Compound I-60]: the concentration for 50% growth inhibition (GI50) is less than 0.5 µM in test [1]; less than 0.5 µM in test [2] (72 h); less than 0.5 µM in the test on VCaP cells (Homo sapiens, VCaP, 72 h).
With `COc1cc(O[C@H]2CC[C@H](NC(=O)c3ccc(N4CCC5(CCC(c6ccc(C7=N[C@@H](C)c8nnc(C)n8-c8sc(C)c(C)c87)cc6C)CC5)C4)nn3)CC2)ccc1C#N` (stereo partly drawn) [Compound I-61], the concentration for 50% growth inhibition (GI50) (in test [1]; in test [2]; in the test with VCaP cells (72 hours)) was less than 0.5 µM throughout.
Regarding `COc1cc(O[C@H]2CC[C@H](NC(=O)c3ccc(N4CCC5(CCC(c6ccc(C7=N[C@@H](C)c8nnc(C)n8-c8sc(C)c(C)c87)c(C)c6)CC5)C4)nn3)CC2)ccc1C#N` (stereo partly drawn) [Compound I-63], the GI50 is less than 0.5 µM in test [1]; less than 0.5 µM in test [2] (72 h); less than 0.5 µM in the test with VCaP cells (Homo sapiens, VCaP, 72 h).
`COc1cc(O[C@H]2CC[C@H](NC(=O)c3ccc(N4CCC5(CCC(c6ccc(C7=N[C@@H](C)c8nnc(C)n8-c8sc(C)c(C)c87)c(Cl)c6)CC5)C4)nn3)CC2)ccc1C#N` (stereo partly drawn) [Compound I-65]: the GI50 in test [1] was less than 0.5 µM; in test [2] (72 h), greater than 3 µM; in the test on VCaP cells (Homo sapiens, VCaP, 72 h) it was 0.5 to 1.5 µM.
With `COc1cc(O[C@H]2CC[C@H](NC(=O)c3ccc(N4CCC5(CCC(c6ccc(C7=N[C@@H](C)c8nnc(C)n8-c8sc(C)c(C)c87)cc6OC)CC5)C4)nn3)CC2)ccc1C#N` (stereo partly drawn) [Compound I-67], the concentration for 50% growth inhibition (GI50) (in test [1]; in test [2]; in the test with VCaP cells (72 hours)) was less than 0.5 µM each time.
Turning to `COc1cc(O[C@H]2CC[C@H](NC(=O)c3ccc(N4CCC5(CCC(c6ccc(C7=N[C@@H](C)c8nnc(C)n8-c8sc(C)c(C)c87)c(OC)c6)CC5)C4)nn3)CC2)ccc1C#N` (stereo partly drawn) [Compound I-68], the GI50 in test [1] is less than 0.5 µM; in test [2] (72 h), less than 0.5 µM; in the test with VCaP cells (Homo sapiens, VCaP, 72 h), less than 0.5 µM.
On to `COc1cc(O[C@H]2CC[C@H](NC(=O)c3ccc(N4CCC5(CCC(c6ccc(C7=N[C@@H](C)c8nnc(C)n8-c8sc(C)c(C)c87)c(OC)c6)CC5)C4)nn3)CC2)ccc1C#N` (stereo partly drawn) [Compound I-69], for which the concentration for 50% growth inhibition (GI50) (in test [1]; in test [2]; with VCaP cells (72 hours)) was less than 0.5 µM in each case.
In the case of `COc1cc(O[C@H]2CC[C@H](NC(=O)c3ccc(N4CCC5(CCN(c6ccc(C7=N[C@@H](C)c8nnc(C)n8-c8sc(C)c(C)c87)cc6)CC5)C4)nn3)CC2)ccc1C#N` [Compound I-70], the concentration for 50% growth inhibition (GI50) in test [1] is less than 0.5 µM; in test [2] (72 h), less than 0.5 µM; in the test on VCaP cells (Homo sapiens, VCaP, 72 h), less than 0.5 µM.
With `COc1cc(O[C@H]2CC[C@H](NC(=O)c3ccc(N4CCC5(CCN(c6ccc(C7=N[C@@H](C)c8nnc(C)n8-c8sc(C)c(C)c87)cc6)CC5)C4)nn3)CC2)ccc1C#N` [Compound I-71], the 50% growth inhibitory concentration (GI50) (in test [1]; in test [2]; in the test on VCaP cells (72 hours)) was less than 0.5 µM in each case.
Consider `COc1cc(O[C@H]2CC[C@H](NC(=O)c3ccc(N4CCC5(CCN(c6ccc(C7=N[C@@H](C)c8nnc(C)n8-c8sc(C)c(C)c87)c(C)c6)CC5)C4)nn3)CC2)ccc1C#N` [Compound I-72], for which the GI50 in test [1] is less than 0.5 µM; in test [2] (72 h) it was less than 0.5 µM; with VCaP cells (Homo sapiens, VCaP, 72 h) it was less than 0.5 µM.
As to `COc1cc(O[C@H]2CC[C@H](NC(=O)c3ccc(N4CCC5(CCN(c6ccc(C7=N[C@@H](C)c8nnc(C)n8-c8sc(C)c(C)c87)cc6Cl)CC5)C4)nn3)CC2)ccc1C#N` [Compound I-73, 6-[8-[2-chloro-4-[(9S)-4,5,9,13-tetramethyl-3-thia-1,8,11,12-tetrazatricyclo[8.3.0.0^2,6]trideca-2 (6),4,7,10,12-pentaen-7-yl]phenyl]-2,8-diazaspiro[4.5]decan-2-yl]-N-[4-(4-cyano-3-methoxy-phenoxy)cyclohexyl]pyridazine-3-carboxamide], the concentration for 50% growth inhibition (GI50) was less than 0.5 µM in test [1]; less than 0.5 µM in test [2] (72 h); less than 0.5 µM in the test on VCaP cells (Homo sapiens, VCaP, 72 h).
With `COc1cc(O[C@H]2CC[C@H](NC(=O)c3ccc(N4CCC5(CCN(c6ccc(C7=N[C@@H](C)c8nnc(C)n8-c8sc(C)c(C)c87)c(Cl)c6)CC5)C4)nn3)CC2)ccc1C#N` [Compound I-74], the GI50 in test [1] is less than 0.5 µM; in test [2] (72 h) it was greater than 3 µM; with VCaP cells (Homo sapiens, VCaP, 72 h) it was less than 0.5 µM.
`COc1cc(O[C@H]2CC[C@H](NC(=O)c3ccc(N4CCC5(CCN(c6ccc(C7=N[C@@H](C)c8nnc(C)n8-c8sc(C)c(C)c87)c(OC)c6)CC5)C4)nn3)CC2)ccc1C#N` [Compound I-75]: the 50% growth inhibitory concentration (GI50) in test [1] was less than 0.5 µM; in test [2] (72 h) it was less than 0.5 µM; in the test with VCaP cells (Homo sapiens, VCaP, 72 h) it was less than 0.5 µM.
